One block for each compound: values may come before it.
Key:
[1] = Brain penetration and plasma/brain pharmacokinetics in combination with Temodar or Lynparza; settings: for Vd: iv, 10 mg/kg, Vss—obs
SF-539 (CNS) = assay: NCI-60 cytotoxicity assay; assay type: cell-based; settings: Homo sapiens; CNS SF-539, 48 h; read-out: Cytotoxicity GI50
Method: (§1) The antiproliferative activities of the indenoisquinoline compounds are determined in the NCI-60 cancer cell lines of the National Cancer Institute Developmental Therapeutics Program (NCI-DTP). […] Cancer cells are incubated with the test compounds at five concentrations ranging from 100 μM to 10 nM for 48 h. After the treated cancer cells are stained with sulforhodamine B dye, the percentage growth is plotted as a function of the common logarithm of the tested compound concentration. […] The approximate average of GI50 values across the entire panel of NCI-60 cancer cell lines for each compound is recorded as the MGM value.
(§2) NCI-60 Cytotoxicity Assay. Compounds were submitted to the National Cancer Institute Developmental Therapeutic Program to determine their growth-inhibitory potentials in NCI-60 cell lines. All compounds satisfied the pre-screening proceeded into the 5-dose cell viability assay, in which cells were treated for 48 h at 5 dosages ranging from 100 μM to 10 nM.

MCF7 (Breast) = assay: NCI-60 cytotoxicity assay; assay type: cell-based, human; settings: Homo sapiens; Breast MCF7, 48 h; read-out: Cytotoxicity GI50
Method: as §1, §2

DU-145 (Prostate) = assay: NCI-60 cytotoxicity assay; assay type: cell-based, human; settings: Homo sapiens; Prostate DU-145, 48 h; read-out: Cytotoxicity GI50
Method: as §1, §2

HOP-62 (Lung) = assay: NCI-60 cytotoxicity assay; assay type: cell-based, human; settings: Homo sapiens; Lung HOP-62, 48 h; read-out: Cytotoxicity GI50
Method: as §1, §2

UACC-62 (Melanoma) = assay: NCI-60 cytotoxicity assay; assay type: cell-based, human; settings: Homo sapiens; Melanoma UACC-62, 48 h; read-out: Cytotoxicity GI50
Method: as §1, §2

OVCAR-3 (Ovarian) = assay: NCI-60 cytotoxicity assay; assay type: cell-based, human; settings: Homo sapiens; Ovarian OVCAR-3, 48 h; read-out: Cytotoxicity GI50
Method: as §1, §2

SN12C (Renal) = assay: NCI-60 cytotoxicity assay; assay type: cell-based, human; settings: Homo sapiens; Renal SN12C, 48 h; read-out: Cytotoxicity GI50
Method: as §1, §2

HCT-116 (Colon) = assay: NCI-60 cytotoxicity assay; assay type: cell-based, human; settings: Homo sapiens; Colon HCT-116, 48 h; read-out: Cytotoxicity GI50
Method: as §1, §2

NCI-60 cancer cell lines = assay: NCI-60 cytotoxicity assay, MGM; assay type: cell-based; settings: Homo sapiens; read-out: MGM (average GI50 across NCI-60 panel)
Method: as §1, §2

[2] = 10 mg/kg IV + Lynparza 100 mg/kg PO, 0.25 h
[3] = 10 mg/kg IV + Lynparza 100 mg/kg PO, 0.5 h
[4] = 10 mg/kg IV + Lynparza 100 mg/kg PO, 1 h
[5] = 10 mg/kg IV + Lynparza 100 mg/kg PO, 2 h
[6] = 10 mg/kg IV + Lynparza 100 mg/kg PO, 4 h
[7] = 10 mg/kg IV + Lynparza 100 mg/kg PO, 8 h
[8] = 10 mg/kg IV + Lynparza 100 mg/kg PO, 24 h
[9] = LMP744 20 mg/kg IV + Temador 125 mg/kg PO, 0.25 h
[10] = LMP744 20 mg/kg IV + Temador 125 mg/kg PO, 0.5 h
[11] = LMP744 20 mg/kg IV + Temador 125 mg/kg PO, 1 h
[12] = LMP744 20 mg/kg IV + Temador 125 mg/kg PO, 2 h
[13] = LMP744 20 mg/kg IV + Temador 125 mg/kg PO, 4 h
[14] = LMP744 20 mg/kg IV + Temador 125 mg/kg PO, 8 h
[15] = LMP744 20 mg/kg IV + Temador 125 mg/kg PO, 24 h
[16] = brain, 10 mg/kg IV + Lynparza 100 mg/kg PO
[17] = brain, LMP744 20 mg/kg IV + Temador 125 mg/kg
[18] = plasma, 10 mg/kg IV + Lynparza 100 mg/kg PO
[19] = plasma, LMP744 20 mg/kg IV + Temador 125 mg/kg
[20] = LMP400 10 mg/kg IV + Temador 125 mg/kg PO, 0.25 h
[21] = LMP400 10 mg/kg IV + Temador 125 mg/kg PO, 0.5 h
[22] = LMP400 10 mg/kg IV + Temador 125 mg/kg PO, 2 h
[23] = LMP400 10 mg/kg IV + Temador 125 mg/kg PO, 4 h
[24] = LMP400 10 mg/kg IV + Temador 125 mg/kg PO, 8 h
[25] = LMP400 10 mg/kg IV + Temador 125 mg/kg PO, 24 h
[26] = brain, LMP400 10 mg/kg IV + Temador 125 mg/kg PO
[27] = plasma, LMP400 10 mg/kg IV + Temador 125 mg/kg PO

SMILES: COc1cc2c3c(n(CCCNCCO)c(=O)c2cc1OC)-c1cc2c(cc1C3=O)OCO2 [LMP744]
Brain Conc [1, 2]: 89 ± 19 nM
Brain/Plasma Conc Ratio [1, 2]: 0.46
Plasma Conc [1, 2]: 1356 ± 229 nM
Brain Conc [1, 3]: 780 ± 24 nM
Brain/Plasma Conc Ratio [1, 3]: 0.83
Plasma Conc [1, 3]: 940 ± 155 nM
Brain Conc [1, 4]: 825 ± 250 nM
Brain/Plasma Conc Ratio [1, 4]: 2.05
Plasma Conc [1, 4]: 402 ± 29 nM
Brain Conc [1, 5]: 850 ± 58 nM
Brain/Plasma Conc Ratio [1, 5]: 2.64
Plasma Conc [1, 5]: 322 ± 88 nM
Brain Conc [1, 6]: 548 ± 28 nM
Brain/Plasma Conc Ratio [1, 6]: 2.91
Plasma Conc [1, 6]: 188 ± 54 nM
Brain Conc [1, 7]: 557 ± 66 nM
Brain/Plasma Conc Ratio [1, 7]: 7.74
Plasma Conc [1, 7]: 72 ± 26 nM
Brain Conc [1, 8]: 457 ± 61 nM
Brain/Plasma Conc Ratio [1, 8]: 20.30
Plasma Conc [1, 8]: 13 ± 2 nM
Brain Conc [1, 9]: 1093 ± 168 nM
Brain/Plasma Conc Ratio [1, 9]: 0.49
Plasma Conc [1, 9]: 2238 ± 465 nM
Brain Conc [1, 10]: 1199 ± 243 nM
Brain/Plasma Conc Ratio [1, 10]: 0.89
Plasma Conc [1, 10]: 1854 ± 101 nM
Brain Conc [1, 11]: 1390 ± 145 nM
Brain/Plasma Conc Ratio [1, 11]: 1.35
Plasma Conc [1, 11]: 1027 ± 202 nM
Brain Conc [1, 12]: 1328 ± 188 nM
Brain/Plasma Conc Ratio [1, 12]: 2.49
Plasma Conc [1, 12]: 534 ± 143 nM
Brain Conc [1, 13]: 1272 ± 188 nM
Brain/Plasma Conc Ratio [1, 13]: 3.58
Plasma Conc [1, 13]: 355 ± 37 nM
Brain Conc [1, 14]: 1244 ± 78 nM
Plasma Conc [1, 14]: 139 ± 17 nM
Brain Conc [1, 15]: 955 ± 76 nM
Brain/Plasma Conc Ratio [1, 15]: 46
Plasma Conc [1, 15]: 21 ± 4 nM
AUClast [1, 16]: 5860 ng·h/g
Cmax [1, 16]: 373 ng/g
Tmax [1, 16]: 2.00 h
AUClast [1, 17]: 12185 ng·h/g
Cmax [1, 17]: 611 ng/g
Tmax [1, 17]: 1.00 h
AUCInf [1, 18]: 1535 ng·h/mL
AUClast [1, 18]: 1491 ng·h/mL
AUClast/D [1, 18]: 149 h·ng/mL per mg/kg
AUC—% Extrap—obs [1, 18]: 2.83%
C0 [1, 18]: 2072 ng/mL
Cl_obs [1, 18]: 109 mL/min/kg
MRTInf—obs [1, 18]: 4.33 h
T1/2 [1, 18]: 5.43 h
Vss—obs [1, 18]: 28.2 L/kg
AUCInf [1, 19]: 2881 ng·h/mL
AUClast [1, 19]: 2813 ng·h/mL
AUClast/D [1, 19]: 141 h·ng/mL per mg/kg
AUC—% Extrap—obs [1, 19]: 2.37%
C0 [1, 19]: 4973 ng/mL
Cl_obs [1, 19]: 116 mL/min/kg
MRTInf—obs [1, 19]: 4.09 h
T1/2 [1, 19]: 5.20 h
Vss—obs [1, 19]: 28.4 L/kg

SMILES: COc1cc2c3c(n(CCCN4CCOCC4)c(=O)c2cc1OC)-c1nc2c(cc1C3=O)OCO2 [G101, 2,3-Dimethoxy-6-(3-morpholinopropyl)-5H-[1,3]dioxolo[4″,5″:5′,6′]pyrido[3′,2′:4,5]cyclopenta[1,2-c]isoquinoline-5,12(6H)-dione]
GI50 (SF-539 (CNS)): 230 nM
GI50 (MCF7 (Breast)): 39 nM
GI50 (DU-145 (Prostate)): 420 nM
GI50 (HOP-62 (Lung)): 51 nM
GI50 (UACC-62 (Melanoma)): 150 nM
GI50 (OVCAR-3 (Ovarian)): 4610 nM
GI50 (SN12C (Renal)): 2720 nM
GI50 (HCT-116 (Colon)): 460 nM
GI50 (NCI-60 cancer cell lines): 930 nM

Brain Conc [1, 2]: 14924 ± 107 nM
Brain/Plasma Conc Ratio [1, 2]: 4.58
Plasma Conc [1, 2]: 3258 ± 295 nM
Brain Conc [1, 3]: 12083 ± 1787 nM
Brain/Plasma Conc Ratio [1, 3]: 5.42
Plasma Conc [1, 3]: 2231 ± 419 nM
Brain Conc [1, 4]: 6670 ± 431 nM
Plasma Conc [1, 4]: 1787 ± 169 nM
Brain Conc [1, 5]: 3766 ± 408 nM
Brain/Plasma Conc Ratio [1, 5]: 2.73
Plasma Conc [1, 5]: 1381 ± 84 nM
Brain Conc [1, 6]: 2666 ± 265 nM
Brain/Plasma Conc Ratio [1, 6]: 2.83
Plasma Conc [1, 6]: 941 ± 190 nM
Brain Conc [1, 7]: 1162 ± 104 nM
Plasma Conc [1, 7]: 491 ± 53 nM
Brain Conc [1, 8]: 235 ± 76 nM
Plasma Conc [1, 8]: 111 ± 39 nM
Brain/Plasma Conc Ratio [1, 20]: 5.99
Plasma Conc [1, 20]: 2311 ± 274 nM
Brain Conc [1, 21]: 10074 ± 1157 nM
Brain/Plasma Conc Ratio [1, 21]: 5.20
Plasma Conc ([1]; LMP400 10 mg/kg IV + Temador 125 mg/kg PO, 1 h): 1944 ± 211 nM
Brain/Plasma Conc Ratio [1, 22]: 3.16
Plasma Conc [1, 22]: 1041 ± 57 nM
Brain Conc [1, 23]: 1722 ± 226 nM
Brain/Plasma Conc Ratio [1, 23]: 2.79
Plasma Conc [1, 23]: 617 ± 24 nM
Brain Conc [1, 24]: 919 ± 165 nM
Brain/Plasma Conc Ratio [1, 24]: 1.91
Plasma Conc [1, 24]: 481 ± 104 nM
Brain Conc [1, 25]: 177 ± 70 nM
Brain/Plasma Conc Ratio [1, 25]: 0.96
AUCInf [1, 16]: 20928 ng·h/g
AUClast [1, 16]: 19983 ng·h/g
AUC—% Extrap—obs [1, 16]: 4.51%
Cmax [1, 16]: 12173 ng/g
T1/2 [1, 16]: 6.01 h
AUCInf [1, 26]: 16590 ng·h/g
AUClast [1, 26]: 15811 ng·h/g
AUC—% Extrap—obs [1, 26]: 4.70%
Cmax [1, 26]: 9080 ng/g
MRTInf—obs [1, 26]: 5.67 h
T1/2 [1, 26]: 6.35 h
Tmax [1, 26]: 0.0830 h
concentration at 0.25 h ([1]; mouse, brain, intravenous, Brain Conc, LMP400 10 mg/kg IV + Temador 125 mg/kg PO, 0.25 h): 13800 ± 638 nM
concentration at 1 h ([1]; mouse, brain, intravenous, Brain Conc, LMP400 10 mg/kg IV + Temador 125 mg/kg PO, 1 h): 5360 ± 276 nM
concentration at 2 h ([1]; mouse, brain, intravenous, Brain Conc, LMP400 10 mg/kg IV + Temador 125 mg/kg PO, 2 h): 5290 ± 321 nM
concentration at 0.5 h ([1]; mouse, plasma, intravenous, Plasma Conc, LMP400 10 mg/kg IV + Temador 125 mg/kg PO, 0.5 h): 1940 ± 274 nM
Vd ([1]; mouse, plasma, plasma, 10 mg/kg IV + Lynparza 100 mg/kg PO): 10.4 L/kg
Vd ([1]; mouse, plasma, plasma, LMP400 10 mg/kg IV + Temador 125 mg/kg PO): 11.9 L/kg
AUCInf [1, 18]: 7144 ng·h/mL
AUClast [1, 18]: 6642 ng·h/mL
AUClast/D [1, 18]: 664 h·ng/mL per mg/kg
AUC—% Extrap—obs [1, 18]: 7.02%
C0 [1, 18]: 2286 ng/mL
Cl_obs [1, 18]: 23.3 mL/min/kg
T1/2 [1, 18]: 6.74 h
AUCInf [1, 27]: 6248 ng·h/mL
AUClast [1, 27]: 5823 ng·h/mL
AUClast/D [1, 27]: 582 h·ng/mL per mg/kg
AUC—% Extrap—obs [1, 27]: 6.80%
C0 [1, 27]: 3042 ng/mL
Cl_obs [1, 27]: 26.7 mL/min/kg
MRTInf—obs [1, 27]: 7.41 h
T1/2 [1, 27]: 7.03 h
SMILES: COc1cc2c3c(n(CCCN4CCOCC4)c(=O)c2cc1OC)-c1cc2c(cc1C3=O)OCO2 [LMP400, indotecan]

SMILES: COc1cc2c3c(n(CCCn4ccnc4)c(=O)c2cc1OC)-c1nc2c(cc1C3=O)OCO2 [G102, 6-(3-(1H-Imidazol-1-yl)propyl)-2,3-dimethoxy-5H-[1,3]dioxolo[4″,5″:5′,6′]pyrido[3′,2′:4,5]cyclopenta[1,2-c]isoquinoline-5,12(6H)-dione]
GI50 (SF-539 (CNS)): 39 nM
GI50 (MCF7 (Breast)): 26 nM
GI50 (DU-145 (Prostate)): 58 nM
GI50 (HOP-62 (Lung)): 29 nM
GI50 (UACC-62 (Melanoma)): 42 nM
GI50 (OVCAR-3 (Ovarian)): 33400 nM
GI50 (SN12C (Renal)): 440 nM
GI50 (HCT-116 (Colon)): 310 nM
GI50 (NCI-60 cancer cell lines): 780 nM

From US20240287089A1, “Preparation and Uses of 7-Azaindenoisoquinolines” (Purdue Research Foundation, priority 0001, published 2024)
